How the values were obtained:
Assay in all cases: Ambit KinomeScan screening
Format in all cases: binding
Settings in all cases: CAL-130 10 μM
FLT4 = target: T1, FLT4 (Homo sapiens, UniProt P35916)
T1 construct: unspecified tag ('tagged kinases'); purchased Ambit (KinomeScan screening service)
Method: (§1) CAL-130 (10 μM) was evaluated for its ability to prevent tagged kinases from interacting with immobilized “bait” ligand (Karaman et al., 2008). Results are reported as “% of control binding”, where lower numbers indicate stronger interactions with the tagged kinase. Values of >35% are considered “no hits”. PI3Kδ had the lowest percentage of control binding at 0.2% followed by PI3Kγ at 3.2% (See Table 1 below). These values indicate a high probability of a potent interaction. 353 kinases were assessed in the screen (Table 2).

AKT3 = target: T2, AKT3 (Homo sapiens, UniProt Q9Y243)
T2 construct: purchased Ambit (KinomeScan screening)
Method: as §1

FES = target: T3, FES (Homo sapiens, UniProt P07332)
T3 construct: unspecified tag ("tagged kinases"); purchased Ambit (KinomeScan screening service)
Method: as §1

CSF1R = target: T4, CSF1R (Homo sapiens, UniProt P07333)
T4 construct: purchased Ambit (KinomeScan screening service)
Method: as §1

ICK = target: T5, ICK (Homo sapiens, UniProt Q9UPZ9)
T5 construct: Ambit (KinomeScan screening)
Method: as §1

GCN2(S808G) = target: T6, GCN2(S808G) (Homo sapiens, UniProt Q9P2K8, S808G)
T6 construct: unspecified tag ('tagged kinases'); purchased Ambit (KinomeScan screening service)
Method: as §1

RIPK1 = target: T7, RIPK1 (Homo sapiens, UniProt Q13546)
T7 construct: unspecified tag (tagged kinase); purchased Ambit (KinomeScan screening)
Method: as §1

PAK6 = target: T8, PAK6 (Homo sapiens, UniProt Q9NQU5)
T8 construct: tag (kind not specified); purchased Ambit (KinomeScan screening service)
Method: as §1

ABL1(T315I) = target: T9, ABL1(T315I) (Homo sapiens, UniProt P00519, T315I)
T9 construct: unspecified tag ("tagged kinases"); purchased Ambit (KinomeScan screening)
Method: as §1

INSRR = target: T10, INSRR (Homo sapiens, UniProt P14616)
T10 construct: Ambit (KinomeScan screening)
Method: as §1

PIK3CD = target: T11, PIK3CD (Homo sapiens, UniProt O00329)
T11 construct: unspecified tag; purchased Ambit (KinomeScan screening panel)
Method: as §1

MLK3 = target: T12, MLK3 (Homo sapiens, UniProt Q16584)
T12 construct: unspecified tag ('tagged kinases'); purchased Ambit (KinomeScan screening)
Method: as §1

MST1 = target: T13, MST1 (Homo sapiens, UniProt Q13043)
T13 construct: unspecified tag ('tagged kinases'); purchased Ambit (KinomeScan screening)
Method: as §1

YSK4 = target: T14, YSK4 (Homo sapiens, UniProt Q56UN5)
T14 construct: purchased Ambit (KinomeScan screening service)
Method: as §1

MYLK = target: T15, MYLK (Homo sapiens, UniProt Q15746)
T15 construct: unspecified tag; purchased Ambit (KinomeScan screening panel)
Method: as §1

FER = target: T16, FER (Homo sapiens, UniProt P16591)
T16 construct: unspecified tag ("tagged kinases"); purchased Ambit (KinomeScan screening service)
Method: as §1

ERBB4 = target: T17, ERBB4 (Homo sapiens, UniProt Q15303)
T17 construct: unspecified tag ("tagged kinases"); purchased Ambit (KinomeScan screening service)
Method: as §1

NEK7 = target: T18, NEK7 (Homo sapiens, UniProt Q8TDX7)
T18 construct: purchased Ambit (KinomeScan screening service)
Method: as §1

PFTK1 = target: T19, PFTK1 (Homo sapiens, UniProt O94921)
T19 construct: unspecified tag ('tagged kinases'); purchased Ambit (KinomeScan screening)
Method: as §1

EPHB4 = target: T20, EPHB4 (Homo sapiens, UniProt P54760)
T20 construct: purchased Ambit (KinomeScan screening service)
Method: as §1

ERK2 = target: T21, ERK2 (Homo sapiens, UniProt P28482)
T21 construct: unspecified tag ("tagged kinases"); purchased Ambit (KinomeScan screening service)
Method: as §1

CDK3 = target: T22, CDK3 (Homo sapiens, UniProt Q00526)
T22 construct: purchased Ambit (KinomeScan screening)
Method: as §1

MERTK = target: T23, MERTK (Homo sapiens, UniProt Q12866)
T23 construct: purchased Ambit (KinomeScan screening)
Method: as §1

TLK2 = target: T24, TLK2 (Homo sapiens, UniProt Q86UE8)
T24 construct: unspecified tag (tagged kinase); purchased Ambit (KinomeScan screening)
Method: as §1

RPS6KA4 = target: T25, RPS6KA4 (Homo sapiens, UniProt O75676)
T25 construct: tag, kind not specified; purchased Ambit (KinomeScan screening service)
Method: as §1

RIOK3 = target: T26, RIOK3 (Homo sapiens, UniProt O14730)
T26 construct: unspecified tag (tagged kinase); purchased Ambit (KinomeScan screening)
Method: as §1

MYO3B = target: T27, MYO3B (Homo sapiens, UniProt Q8WXR4)
T27 construct: unspecified tag; purchased Ambit (KinomeScan screening panel)
Method: as §1

FGFR2 = target: T28, FGFR2 (Homo sapiens, UniProt P21802)
T28 construct: unspecified tag; purchased Ambit (KinomeScan screening service)
Method: as §1

MAP4K2 = target: T29, MAP4K2 (Homo sapiens, UniProt Q12851)
T29 construct: Ambit (KinomeScan screening)
Method: as §1

CDC2L2 = target: T30, CDC2L2 (Homo sapiens, UniProt Q9UQ88)
T30 construct: purchased Ambit (KinomeScan screening)
Method: as §1

AKT2 = target: T31, AKT2 (Homo sapiens, UniProt P31751)
T31 construct: purchased Ambit (KinomeScan screening)
Method: as §1

PRP4 = target: T32, PRP4 (Homo sapiens, UniProt Q13523)
T32 construct: tag (kind not specified); purchased Ambit (KinomeScan screening service)
Method: as §1

KIT(D816V) = target: T33, KIT(D816V) (Homo sapiens, UniProt P10721, D816V)
T33 construct: purchased Ambit (KinomeScan screening)
Method: as §1

TAK1 = target: T34, TAK1 (Homo sapiens, UniProt O43318)
T34 construct: tag (kind not specified); purchased Ambit (KinomeScan screening service)
Method: as §1

MET(Y1235D) = target: T35, MET(Y1235D) (Homo sapiens, UniProt P08581, Y1235D)
T35 construct: unspecified tag ('tagged kinases'); purchased Ambit (KinomeScan screening)
Method: as §1

ERBB2 = target: T36, ERBB2 (Homo sapiens, UniProt P04626)
T36 construct: purchased Ambit (KinomeScan screening service)
Method: as §1

Measured: Percent of Control Binding

T11 sequence (O00329 whole entry): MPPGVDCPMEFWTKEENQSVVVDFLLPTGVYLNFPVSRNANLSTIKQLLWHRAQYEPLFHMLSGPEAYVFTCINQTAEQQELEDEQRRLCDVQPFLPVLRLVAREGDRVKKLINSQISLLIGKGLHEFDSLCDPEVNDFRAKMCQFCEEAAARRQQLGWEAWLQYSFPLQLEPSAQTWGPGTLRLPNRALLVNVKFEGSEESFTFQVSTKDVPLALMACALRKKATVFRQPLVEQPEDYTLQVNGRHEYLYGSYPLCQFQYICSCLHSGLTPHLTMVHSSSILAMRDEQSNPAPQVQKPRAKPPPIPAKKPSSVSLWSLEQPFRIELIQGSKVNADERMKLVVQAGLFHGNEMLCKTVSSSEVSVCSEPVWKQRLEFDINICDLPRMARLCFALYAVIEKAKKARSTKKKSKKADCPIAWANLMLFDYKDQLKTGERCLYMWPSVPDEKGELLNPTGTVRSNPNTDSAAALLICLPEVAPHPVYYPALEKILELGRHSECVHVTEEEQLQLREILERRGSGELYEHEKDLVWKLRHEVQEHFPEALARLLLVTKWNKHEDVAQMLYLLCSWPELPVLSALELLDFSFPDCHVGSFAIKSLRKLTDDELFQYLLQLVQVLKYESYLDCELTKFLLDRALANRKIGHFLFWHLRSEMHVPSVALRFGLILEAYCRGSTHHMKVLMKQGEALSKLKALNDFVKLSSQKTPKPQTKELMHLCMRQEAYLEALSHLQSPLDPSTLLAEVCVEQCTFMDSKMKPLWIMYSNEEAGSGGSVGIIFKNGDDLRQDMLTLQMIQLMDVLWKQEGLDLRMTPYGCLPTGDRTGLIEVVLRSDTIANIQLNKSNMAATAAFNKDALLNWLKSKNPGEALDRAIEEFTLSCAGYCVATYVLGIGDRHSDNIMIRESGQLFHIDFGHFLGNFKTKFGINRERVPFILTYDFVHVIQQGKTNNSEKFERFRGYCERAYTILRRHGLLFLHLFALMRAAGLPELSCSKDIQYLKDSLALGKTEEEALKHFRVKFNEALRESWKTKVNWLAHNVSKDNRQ
T4 sequence (P07333 20-972): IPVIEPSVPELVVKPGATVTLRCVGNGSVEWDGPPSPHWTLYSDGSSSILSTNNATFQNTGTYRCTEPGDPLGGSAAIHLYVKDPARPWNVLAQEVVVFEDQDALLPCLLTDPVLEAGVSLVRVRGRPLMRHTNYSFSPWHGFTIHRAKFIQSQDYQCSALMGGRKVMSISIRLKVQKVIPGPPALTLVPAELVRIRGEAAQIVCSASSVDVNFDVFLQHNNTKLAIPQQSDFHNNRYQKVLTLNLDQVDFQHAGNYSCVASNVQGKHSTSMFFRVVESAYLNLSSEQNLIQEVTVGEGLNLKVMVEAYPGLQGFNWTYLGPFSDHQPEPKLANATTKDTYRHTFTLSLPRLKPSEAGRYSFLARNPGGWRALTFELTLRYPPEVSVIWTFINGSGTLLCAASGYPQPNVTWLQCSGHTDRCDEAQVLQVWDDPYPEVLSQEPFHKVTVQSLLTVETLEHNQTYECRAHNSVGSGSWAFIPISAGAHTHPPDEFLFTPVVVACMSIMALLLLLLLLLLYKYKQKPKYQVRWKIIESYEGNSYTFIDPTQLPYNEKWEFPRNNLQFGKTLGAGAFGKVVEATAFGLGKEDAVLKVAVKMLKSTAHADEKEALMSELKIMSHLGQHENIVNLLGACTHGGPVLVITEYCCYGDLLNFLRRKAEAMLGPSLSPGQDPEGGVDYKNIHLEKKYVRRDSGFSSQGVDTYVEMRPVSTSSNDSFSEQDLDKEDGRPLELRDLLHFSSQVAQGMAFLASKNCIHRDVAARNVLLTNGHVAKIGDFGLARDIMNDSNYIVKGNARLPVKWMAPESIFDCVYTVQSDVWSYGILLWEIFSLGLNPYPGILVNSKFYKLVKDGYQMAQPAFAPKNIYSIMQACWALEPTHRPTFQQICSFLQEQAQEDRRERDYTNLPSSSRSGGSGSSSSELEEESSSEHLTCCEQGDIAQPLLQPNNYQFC
T7 sequence (Q13546 whole entry): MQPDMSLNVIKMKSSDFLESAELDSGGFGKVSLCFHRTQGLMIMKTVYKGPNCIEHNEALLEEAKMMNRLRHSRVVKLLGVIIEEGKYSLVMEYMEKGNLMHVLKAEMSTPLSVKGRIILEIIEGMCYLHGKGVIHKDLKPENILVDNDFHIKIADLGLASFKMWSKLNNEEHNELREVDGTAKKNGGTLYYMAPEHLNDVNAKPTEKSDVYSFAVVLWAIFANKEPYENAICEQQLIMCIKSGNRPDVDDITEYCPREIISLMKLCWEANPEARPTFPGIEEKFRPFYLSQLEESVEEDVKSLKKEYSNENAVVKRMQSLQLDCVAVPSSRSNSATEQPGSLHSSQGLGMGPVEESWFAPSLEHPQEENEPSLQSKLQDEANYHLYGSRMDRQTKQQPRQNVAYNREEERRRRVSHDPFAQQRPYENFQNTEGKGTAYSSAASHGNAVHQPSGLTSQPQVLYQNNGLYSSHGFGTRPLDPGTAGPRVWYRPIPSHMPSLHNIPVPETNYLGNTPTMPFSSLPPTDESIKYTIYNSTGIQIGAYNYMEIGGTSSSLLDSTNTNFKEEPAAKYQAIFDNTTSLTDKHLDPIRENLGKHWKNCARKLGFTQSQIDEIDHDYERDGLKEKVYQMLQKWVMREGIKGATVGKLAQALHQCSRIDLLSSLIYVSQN
T34 sequence (O43318 whole entry): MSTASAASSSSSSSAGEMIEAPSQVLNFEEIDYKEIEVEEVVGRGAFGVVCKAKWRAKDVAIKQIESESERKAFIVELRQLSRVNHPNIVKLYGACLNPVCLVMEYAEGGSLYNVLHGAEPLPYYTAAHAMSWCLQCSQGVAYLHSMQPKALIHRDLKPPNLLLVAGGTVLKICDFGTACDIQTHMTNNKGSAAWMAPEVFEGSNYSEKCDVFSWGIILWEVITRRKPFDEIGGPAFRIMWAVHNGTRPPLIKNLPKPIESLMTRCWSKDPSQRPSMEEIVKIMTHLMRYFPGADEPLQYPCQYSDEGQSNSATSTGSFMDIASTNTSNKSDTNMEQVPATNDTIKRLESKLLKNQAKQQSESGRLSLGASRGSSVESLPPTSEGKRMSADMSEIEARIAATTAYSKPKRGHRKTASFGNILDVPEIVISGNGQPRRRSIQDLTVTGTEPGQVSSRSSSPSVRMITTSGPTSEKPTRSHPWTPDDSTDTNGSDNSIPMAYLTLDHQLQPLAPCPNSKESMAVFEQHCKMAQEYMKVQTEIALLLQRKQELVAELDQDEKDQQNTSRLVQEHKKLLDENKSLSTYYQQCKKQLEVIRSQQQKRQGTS
T22 sequence (Q00526 whole entry): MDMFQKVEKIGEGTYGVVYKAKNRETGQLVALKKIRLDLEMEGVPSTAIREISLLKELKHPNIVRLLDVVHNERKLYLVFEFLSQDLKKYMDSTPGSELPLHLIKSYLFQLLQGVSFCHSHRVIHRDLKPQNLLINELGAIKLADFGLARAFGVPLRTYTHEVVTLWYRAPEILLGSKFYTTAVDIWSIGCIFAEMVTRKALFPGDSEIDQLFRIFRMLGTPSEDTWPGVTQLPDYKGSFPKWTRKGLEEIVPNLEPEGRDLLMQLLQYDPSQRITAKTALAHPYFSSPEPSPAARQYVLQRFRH
T29 sequence (Q12851 whole entry): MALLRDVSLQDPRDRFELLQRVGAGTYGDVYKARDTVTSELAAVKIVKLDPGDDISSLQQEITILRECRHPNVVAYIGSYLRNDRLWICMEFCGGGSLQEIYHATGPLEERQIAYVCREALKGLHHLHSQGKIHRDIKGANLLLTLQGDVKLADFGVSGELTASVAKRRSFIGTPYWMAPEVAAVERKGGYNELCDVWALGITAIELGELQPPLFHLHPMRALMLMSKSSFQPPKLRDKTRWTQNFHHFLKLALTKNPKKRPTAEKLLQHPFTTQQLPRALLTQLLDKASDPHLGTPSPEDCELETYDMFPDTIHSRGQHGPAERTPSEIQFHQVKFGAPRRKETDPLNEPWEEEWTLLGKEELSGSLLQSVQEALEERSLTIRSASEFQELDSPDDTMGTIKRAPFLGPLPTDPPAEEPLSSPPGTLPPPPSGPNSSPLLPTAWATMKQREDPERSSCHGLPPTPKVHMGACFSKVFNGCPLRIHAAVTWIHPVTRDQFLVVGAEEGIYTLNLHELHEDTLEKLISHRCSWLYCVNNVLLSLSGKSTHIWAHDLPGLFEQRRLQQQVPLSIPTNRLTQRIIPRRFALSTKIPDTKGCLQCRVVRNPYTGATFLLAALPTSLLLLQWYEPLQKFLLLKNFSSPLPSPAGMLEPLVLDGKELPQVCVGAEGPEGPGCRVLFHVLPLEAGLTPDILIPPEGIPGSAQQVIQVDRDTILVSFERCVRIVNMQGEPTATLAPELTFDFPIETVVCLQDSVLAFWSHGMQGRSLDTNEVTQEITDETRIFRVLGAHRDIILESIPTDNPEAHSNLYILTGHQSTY
T18 sequence (Q8TDX7 whole entry): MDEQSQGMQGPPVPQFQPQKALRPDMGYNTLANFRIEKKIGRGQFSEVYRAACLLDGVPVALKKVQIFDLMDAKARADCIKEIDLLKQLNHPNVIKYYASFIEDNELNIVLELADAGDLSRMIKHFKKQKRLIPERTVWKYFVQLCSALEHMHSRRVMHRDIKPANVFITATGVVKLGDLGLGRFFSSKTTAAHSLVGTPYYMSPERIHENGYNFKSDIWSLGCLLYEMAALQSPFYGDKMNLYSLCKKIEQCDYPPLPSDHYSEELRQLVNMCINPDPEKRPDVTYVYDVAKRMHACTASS

Cc1ccccc1-n1c(C(C)Nc2nc(N)nc3nc[nH]c23)nc2cccc(C)c2c1=O (stereo not shown) [CAL-130]
0.2%: PIK3CD; PIK3CD / PI3Kδ (Table 1)
0.1%: PIK3CD; PI3KCD (Table 2)
100%: FLT4 | AKT3 | FES | CSF1R | ICK | GCN2(S808G) | RIPK1 | PAK6 | ABL1(T315I) | INSRR | MLK3 | MST1 | YSK4 | MYLK | FER | ERBB4 | NEK7 | PFTK1 | EPHB4 | ERK2 | CDK3 | MERTK | TLK2 | RPS6KA4 | RIOK3 | MYO3B | FGFR2 | MAP4K2 | CDC2L2 | AKT2 | PRP4 | KIT(D816V) | TAK1 | MET(Y1235D) | ERBB2
